Reference: PubChem BioAssay AID1963847 (Molecular Pharmacology Branch, DTP, NCI, 2024)

Tested on: 415267-285-R-J2-PDC complex spheroid viability
Test: Anticancer human tumor 415267-285-R-J2-PDC patient-derived breast carcinoma cell line growth inhibition [POLQ]
Settings: for IC50: curve of first compound; for viability, T/C: stronger effect = lower value
How it was run: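 Complex spheroid viability model combining PDC tumour cells with endothelial (HUVEC) and MSC stromal cells. Novobiocin, ART-558 or RP6685 were tested singly and in combination with standard and investigational anticancer drugs. Each was titrated in half-log steps from near clinical Cmax, or from 10 microM where Cmax was unknown.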

[1] = second compound 0.0316 µM, first compound 0.0316 µM
[2] = second compound 0.0316 µM, first compound 0.1 µM
[3] = second compound 0.0316 µM, first compound 0.316 µM
[4] = second compound 0.0316 µM, first compound 1 µM
[5] = second compound 0.0316 µM, first compound 3.16 µM
[6] = second compound 0.0316 µM, first compound 10 µM
[7] = second compound 0.1 µM, first compound 0.0316 µM
[8] = second compound 0.1 µM, first compound 0.1 µM
[9] = second compound 0.1 µM, first compound 0.316 µM
[10] = second compound 0.1 µM, first compound 1 µM
[11] = second compound 0.1 µM, first compound 3.16 µM
[12] = second compound 0.1 µM, first compound 10 µM
[13] = second compound 0.316 µM, first compound 0.0316 µM
[14] = second compound 0.316 µM, first compound 0.1 µM
[15] = second compound 0.316 µM, first compound 0.316 µM
[16] = second compound 0.316 µM, first compound 1 µM
[17] = second compound 0.316 µM, first compound 3.16 µM
[18] = second compound 0.316 µM, first compound 10 µM
[19] = second compound 1 µM, first compound 0.0316 µM
[20] = second compound 1 µM, first compound 0.1 µM
[21] = second compound 1 µM, first compound 0.316 µM
[22] = second compound 1 µM, first compound 1 µM
[23] = second compound 1 µM, first compound 3.16 µM
[24] = second compound 1 µM, first compound 10 µM
[25] = second compound 3.16 µM, first compound 0.0316 µM
[26] = second compound 3.16 µM, first compound 0.1 µM
[27] = second compound 3.16 µM, first compound 0.316 µM
[28] = second compound 3.16 µM, first compound 1 µM
[29] = second compound 3.16 µM, first compound 3.16 µM
[30] = second compound 3.16 µM, first compound 10 µM
[31] = second compound 10 µM, first compound 0.0316 µM
[32] = second compound 10 µM, first compound 0.1 µM
[33] = second compound 10 µM, first compound 0.316 µM
[34] = second compound 10 µM, first compound 1 µM
[35] = second compound 10 µM, first compound 3.16 µM
[36] = second compound 10 µM, first compound 10 µM
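Note: spheroids exposed to compounds for one week before readout.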
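Throughout, for viability, T/C: luminescence used as stand-in measure of viable cells; 100% = DMSO vehicle control viability.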

SMILES: O=c1[nH]cc(F)c(=O)[nH]1 + Cc1cccc(N(C)C(=O)C2C(O)CCN2c2nc(C)cc(C(F)(F)F)c2C#N)c1
- IC50 (second compound 0.0316 µM): 222 nM
- IC50 (second compound 0.1 µM): 207 nM
- IC50 (second compound 0.316 µM): 203 nM
- IC50 (second compound 1 µM): 181 nM
- IC50 (second compound 3.16 µM): 192 nM
- IC50 (second compound 10 µM): 179 nM
- viability, T/C [1]: 87.3%
- viability, T/C [2]: 83.9%
- viability, T/C [3]: 35.1%
- viability, T/C [4]: 30.1%
- viability, T/C [5]: 27.6%
- viability, T/C [6]: 43%
- viability, T/C [7]: 97.1%
- viability, T/C [8]: 72.6%
- viability, T/C [9]: 37.3%
- viability, T/C [10]: 27.2%
- viability, T/C [11]: 28%
- viability, T/C [12]: 39%
- viability, T/C [13]: 98.8%
- viability, T/C [14]: 72%
- viability, T/C [15]: 36.9%
- viability, T/C [16]: 26.6%
- viability, T/C [17]: 26.8%
- viability, T/C [18]: 36.1%
- viability, T/C [19]: 100%
- viability, T/C [20]: 64.8%
- viability, T/C [21]: 36.7%
- viability, T/C [22]: 28.5%
- viability, T/C [23]: 25.6%
- viability, T/C [24]: 35.4%
- viability, T/C [25]: 95.8%
- viability, T/C [26]: 67.9%
- viability, T/C [27]: 36.6%
- viability, T/C [28]: 28.8%
- viability, T/C [29]: 33.5%
- viability, T/C [30]: 33.6%
- viability, T/C [31]: 92.1%
- viability, T/C [32]: 64.5%
- viability, T/C [33]: 36.3%
- viability, T/C [34]: 26.8%
- viability, T/C [35]: 24.7%
- viability, T/C [36]: 29.4%

SMILES: COc1cc(C2c3cc4c(cc3C(OC3OC5COC(C)OC5C(O)C3O)C3COC(=O)C23)OCO4)cc(OC)c1O (stereo not drawn) + Nc1ccc(C#CCN(C(=O)Cc2ncc(C(F)(F)F)cc2C(F)(F)F)c2ccc(F)cc2)nn1
- IC50 (second compound 0.0316 µM): 193 nM
- IC50 (second compound 0.1 µM): 193 nM
- IC50 (second compound 0.316 µM): 194 nM
- IC50 (second compound 1 µM): 169 nM
- IC50 (second compound 3.16 µM): 175 nM
- IC50 (second compound 10 µM): 158 nM
- viability, T/C [1]: 93.4%
- viability, T/C [2]: 91.5%
- viability, T/C [3]: 19%
- viability, T/C [4]: 6.3%
- viability, T/C [5]: 4.79%
- viability, T/C [6]: 4.39%
- viability, T/C [7]: 106%
- viability, T/C [8]: 102%
- viability, T/C [9]: 11.6%
- viability, T/C [10]: 6.09%
- viability, T/C [11]: 4.34%
- viability, T/C [12]: 4.16%
- viability, T/C [13]: 107%
- viability, T/C [14]: 97.8%
- viability, T/C [15]: 14.4%
- viability, T/C [16]: 6.8%
- viability, T/C [17]: 5.09%
- viability, T/C [18]: 4.49%
- viability, T/C [19]: 106%
- viability, T/C [20]: 79.4%
- viability, T/C [21]: 15%
- viability, T/C [22]: 6.3%
- viability, T/C [23]: 4.91%
- viability, T/C [24]: 4.43%
- viability, T/C [25]: 119%
- viability, T/C [26]: 84.3%
- viability, T/C [27]: 13.4%
- viability, T/C [28]: 6.83%
- viability, T/C [29]: 4.94%
- viability, T/C [30]: 4.27%
- viability, T/C [31]: 103%
- viability, T/C [32]: 72.5%
- viability, T/C [33]: 16.2%
- viability, T/C [34]: 6.36%
- viability, T/C [35]: 4.59%
- viability, T/C [36]: 4.33%

SMILES: CCc1c2c(nc3ccc(O)cc13)-c1cc3c(c(=O)n1C2)COC(=O)[C@]3(O)CC + Cc1cccc(N(C)C(=O)C2C(O)CCN2c2nc(C)cc(C(F)(F)F)c2C#N)c1
- IC50 (second compound 0.0316 µM): < 3.16 nM
- IC50 (second compound 0.1 µM): < 3.16 nM
- IC50 (second compound 0.316 µM): < 3.16 nM
- IC50 (second compound 1 µM): < 3.16 nM
- IC50 (second compound 3.16 µM): < 3.16 nM
- IC50 (second compound 10 µM): < 3.16 nM
- viability, T/C (second compound 0.0316 µM, first compound 0.00316 µM): 27.1%
- viability, T/C (second compound 0.0316 µM, first compound 0.01 µM): 11.3%
- viability, T/C [1]: 5.73%
- viability, T/C [2]: 3.97%
- viability, T/C [3]: 3.18%
- viability, T/C [4]: 1.44%
- viability, T/C (second compound 0.1 µM, first compound 0.00316 µM): 26.4%
- viability, T/C (second compound 0.1 µM, first compound 0.01 µM): 10%
- viability, T/C [7]: 5.47%
- viability, T/C [8]: 4.21%
- viability, T/C [9]: 3.59%
- viability, T/C [10]: 1.35%
- viability, T/C (second compound 0.316 µM, first compound 0.00316 µM): 32.5%
- viability, T/C (second compound 0.316 µM, first compound 0.01 µM): 11.6%
- viability, T/C [13]: 5.27%
- viability, T/C [14]: 3.49%
- viability, T/C [15]: 3.51%
- viability, T/C [16]: 1.32%
- viability, T/C (second compound 1 µM, first compound 0.00316 µM): 34%
- viability, T/C (second compound 1 µM, first compound 0.01 µM): 9.41%
- viability, T/C [19]: 6.43%
- viability, T/C [20]: 4.75%
- viability, T/C [21]: 3.42%
- viability, T/C [22]: 0.75%
- viability, T/C (second compound 3.16 µM, first compound 0.00316 µM): 34.7%
- viability, T/C (second compound 3.16 µM, first compound 0.01 µM): 8.16%
- viability, T/C [25]: 6.7%
- viability, T/C [26]: 4.46%
- viability, T/C [27]: 4.26%
- viability, T/C [28]: 1.28%
- viability, T/C (second compound 10 µM, first compound 0.00316 µM): 29.4%
- viability, T/C (second compound 10 µM, first compound 0.01 µM): 10.3%
- viability, T/C [31]: 6.91%
- viability, T/C [32]: 3.72%
- viability, T/C [33]: 3.54%
- viability, T/C [34]: 1.1%

SMILES: COc1cccc2c1C(=O)c1c(O)c3c(c(O)c1C2=O)CC(O)(C(=O)CO)CC3OC1CC(N)C(O)C(C)O1 (stereo not drawn) + Cc1cccc(N(C)C(=O)C2C(O)CCN2c2nc(C)cc(C(F)(F)F)c2C#N)c1
- IC50 (second compound 0.0316 µM): < 31.6 nM
- IC50 (second compound 0.1 µM): < 31.6 nM
- IC50 (second compound 0.316 µM): < 31.6 nM
- IC50 (second compound 1 µM): < 31.6 nM
- IC50 (second compound 3.16 µM): < 31.6 nM
- IC50 (second compound 10 µM): < 31.6 nM
- viability, T/C [1]: 37.8%
- viability, T/C [2]: 18.6%
- viability, T/C [3]: 4.26%
- viability, T/C [4]: 0.86%
- viability, T/C [5]: 1%
- viability, T/C [6]: 2.87%
- viability, T/C [7]: 38.3%
- viability, T/C [8]: 11.9%
- viability, T/C [9]: 5.5%
- viability, T/C [10]: 0.82%
- viability, T/C [11]: 0.95%
- viability, T/C [12]: 3.55%
- viability, T/C [13]: 36.5%
- viability, T/C [14]: 13.7%
- viability, T/C [15]: 4.69%
- viability, T/C [16]: 0.81%
- viability, T/C [17]: 1.46%
- viability, T/C [18]: 2.87%
- viability, T/C [19]: 42.5%
- viability, T/C [20]: 8.66%
- viability, T/C [21]: 4.35%
- viability, T/C [22]: 0.62%
- viability, T/C [23]: 1.26%
- viability, T/C [24]: 2.94%
- viability, T/C [25]: 40.4%
- viability, T/C [26]: 13.7%
- viability, T/C [27]: 5.27%
- viability, T/C [28]: 0.66%
- viability, T/C [29]: 1.47%
- viability, T/C [30]: 2.63%
- viability, T/C [31]: 24.7%
- viability, T/C [32]: 9.06%
- viability, T/C [33]: 7.17%
- viability, T/C [34]: 0.84%
- viability, T/C [35]: 3.16%
- viability, T/C [36]: 3.87%
